According to patent US9834563B2 (Merck Sharp & Dohme Corp., priority 2013, dated 2017):
Structures can show the parent of a compound that is named as a salt.

Legend:
Human GPR40 [1] = biological target: T1, Human GPR40 (Homo sapiens, UniProt O14842); test: Inositol phosphate turnover (IP1) assay in HEK cells stably expressing human GPR40; type: cell-based; design: expressed in transfected cells; conditions: HEK cells stably expressing human GPR40, 3H-inositol labeling, 60 min compound incubation
T1 sequence (O14842 whole entry): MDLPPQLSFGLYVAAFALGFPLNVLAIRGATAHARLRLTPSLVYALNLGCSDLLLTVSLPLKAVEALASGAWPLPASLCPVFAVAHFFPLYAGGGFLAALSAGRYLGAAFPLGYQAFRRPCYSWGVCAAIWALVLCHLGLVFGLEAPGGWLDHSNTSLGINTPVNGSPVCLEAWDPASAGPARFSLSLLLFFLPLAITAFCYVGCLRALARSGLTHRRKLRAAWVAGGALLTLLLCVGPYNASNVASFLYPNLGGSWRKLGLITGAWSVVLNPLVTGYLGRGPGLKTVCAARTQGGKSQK
Method: (§1) Human and mouse GPR40 stable cell-lines were generated in CHO cells stably expressing NFAT BLA (Beta-lactamase). A human GPR40 stable cell-line was generated in HEK cells stably expressing the aequorin expressing reporter. The expression plasmids were transfected using lipofectamine, LIFE TECHNOLOGIES (Carlsbad, Calif.), following manufacturer's instructions. Stable cell-lines were generated following drug selection.
The assay is performed in a 96-well format. HEK cells stably expressing human GPR40 are plated to be 60-80% confluent within 72 h. After 72 h, the plates are aspirated and the cells washed with inositol-free DMEM (ICN). The wash media is replaced with 150 μL of 3H-inositol labeling media (inositol-free media containing 0.4% human albumin or 0.4% mouse albumin, 1× pen/strep antibiotics, glutamine, 25 mM HEPES to which is added 3H-myo-inositol NEN #NET114A 1 mCi/mL, 25 Ci/mmol diluted 1:150 in loading media with a final specific radioactivity of 1 μCi/150 μL). Alternatively, the human and mouse albumin can be added after the overnight labeling step before the addition of LiCl.
The assay is typically run the next day after 18 h labeling. On the day of the assay, 5 μL of 300 mM LiCl is added to all wells and incubated at 37 degrees for 20 min. 0.75 μL of 200× compounds are added and incubated with the cells for 60 min at 37 degrees. The media is then aspirated off and the assay terminated with the addition of 60 μL 10 mM formic acid. The cells are lysed for 60 min at room temperature. 15-30 μL of lysate is mixed with 70 μL/1 mg YSi SPA beads AMERSHAM (United Kingdom) in clear bottom Isoplates. The plates are shaken for 2 h at room temperature. Beads are allowed to settle and the plates are counted in the Wallac MICROBETA instrument. The activities of the compounds in the examples have EC50 (effective concentration of compound to afford 50% of the maximum observed […]) values listed in Table I.

Human GPR40 [2] = biological target: T1, Human GPR40; test: FLIPR assay: agonist-induced calcium mobilization in GPR40/CHO NFAT BLA cells; type: cell-based; design: expressed in transfected cells; host or cells: CHO cells stably expressing NFAT BLA (beta-lactamase)
Description: as §1
FLIPR (Fluorimetric Imaging Plate Reader, Molecular Devices) assays were performed to measure agonist-induced calcium mobilization of the stable clones. For the FLIPR assay, one day before assay, GPR40/CHO NFAT BLA cells were seeded into black-wall-clear-bottom 384-well plates (Costar) at 1.4×10e4 cells/20 μL medium/well. The cells were incubated with 20 μl/well of the assay buffer (HBSS, 0.1% BSA, 20 mM HEPES, 2.5 mM probenecid, pH 7.4) containing 8 μM fluo-4, AM, 0.08% pluronic acid at room temperature for 100 minutes. Fluorescence output was measured using FLIPR. Compounds were dissolved in DMSO and diluted to desired concentrations with assay buffer. 13.3 μL/well of compound solution was added. The activities of the compounds in the examples have EC50 (effective concentration of compound to afford 50% of the maximum observed fluorescence) values listed in Table I.

Cc1nc(OCC2CCC[C@H](O)[C@@H]2O)ccc1-c1ccc(F)c(COc2ccc3c(c2)C[C@H]2[C@H](C(=O)O)[C@@H]32)c1 (stereo partly drawn) [Example 27, (1S,1aS,6aR)-4-((5-(6-(((2R,3S)-2,3-dihydroxycyclohexyl)methoxy)-2-methylpyridin-3-yl)-2-fluorobenzyl)oxy)-1,1a,6,6a-tetrahydrocyclopropa[a]indene-1-carboxylic acid] was tested, and the EC50 (Human GPR40 [1]) was 10 nM and the EC50 (Human GPR40 [2]) was 48.9 nM.

Cc1nc(OCCCC2(O)CC2)ccc1-c1ccc(F)c(COc2ccc3c(c2)C[C@H]2[C@H](C(=O)O)[C@@H]32)c1 [Example 37, (1S,1aS,6aR)-4-((2-fluoro-5-(6-(3-(1-hydroxycyclopropyl)propoxy)-2-methylpyridin-3-yl)benzyl)oxy)-1,1a,6,6a-tetrahydrocyclopropa[a]indene-1-carboxylic acid] showed an EC50 (Human GPR40 [1]) of 14.7 nM and an EC50 (Human GPR40 [2]) of 16.6 nM.

Cc1nc(OC2CCN(S(C)(=O)=O)CC2)ccc1-c1ccc(F)c(COc2ccc3c(c2)C[C@H]2[C@H](C(=O)O)[C@@H]32)c1 [Example 49, (1S,1aS,6aR)-4-((2-fluoro-5-(2-methyl-6-((1-(methylsulfonyl)piperidin-4-yl)oxy)pyridin-3-yl)benzyl)oxy)-1,1a,6,6a-tetrahydrocyclopropa[a]indene-1-carboxylic acid] gave an EC50 (Human GPR40 [1]) of 19.5 nM and an EC50 (Human GPR40 [2]) of 28.9 nM.

O=C(O)[C@H]1[C@@H]2Cc3cc(OCc4cc(-c5cnc(NCC6CCOCC6)cc5C(F)(F)F)ccc4F)ccc3[C@@H]21 [Example 55, (1S,1aS,6aR)-4-((2-fluoro-5-(6-(((tetrahydro-2H-pyran-4-yl)methyl)amino)-4-(trifluoromethyl)pyridin-3-yl)benzyl)oxy)-1,1a,6,6a-tetrahydrocyclopropa[a]indene-1-carboxylic acid] gave an EC50 (Human GPR40 [1]) of 5.5 nM and an EC50 (Human GPR40 [2]) of 35.4 nM.

Cc1cc(OCCCS(C)(=O)=O)nc(C)c1-c1ccc(F)c(COc2ccc3c(c2)C[C@H]2[C@H](C(=O)O)[C@@H]32)c1 [Example 6, 4-{2-Fluoro-5-[6-(3-methanesulfonyl-propoxy)-2,4-dimethyl-pyridin-3-yl]-benzyloxy}-1,1a,6,6a-tetrahydro-cyclopropa[a]indene-1-carboxylic acid] showed an EC50 (Human GPR40 [1]) of 22.3 nM and an EC50 (Human GPR40 [2]) of 57.4 nM.

Cc1nc(N2CCC(C#N)(c3ccccc3)CC2)nc(C)c1-c1ccc(F)c(COc2ccc3c(c2)C[C@H]2[C@H](C(=O)O)[C@@H]32)c1F [Example 46, (1S,1aS,6aR)-4-((3-(2-(4-cyano-4-phenylpiperidin-1-yl)-4,6-dimethylpyrimidin-5-yl)-2,6-difluorobenzyl)oxy)-1,1a,6,6a-tetrahydrocyclopropa[a]indene-1-carboxylic acid] was tested, and the EC50 (Human GPR40 [1]) was 629 nM and the EC50 (Human GPR40 [2]) was 38.7 nM.

Cc1nc(OC[C@@H]2CCCC[C@H]2S(C)(=O)=O)ccc1-c1ccc(F)c(COc2ccc3c(c2)C[C@H]2[C@H](C(=O)O)[C@@H]32)c1 [Example 25, (1S,1aS,6aR)-4-((2-fluoro-5-(2-methyl-6-(((1S,2R)-2-(methylsulfonyl)cyclohexyl)methoxy)pyridin-3-yl)benzyl)oxy)-1,1a,6,6a-tetrahydrocyclopropa[a]indene-1-carboxylic acid] gave an EC50 (Human GPR40 [1]) of 39 nM and an EC50 (Human GPR40 [2]) of 67.9 nM.

With Cc1nc(N2CCC3(C=Cc4ccccc43)CC2)ccc1-c1ccc(F)c(COc2ccc3c(c2)C[C@H]2[C@H](C(=O)O)[C@@H]32)c1 [Example 40] the EC50 (Human GPR40 [1]) was 519 nM and the EC50 (Human GPR40 [2]) was 32 nM.

With Cc1nc(N2CCC(c3ccccc3)CC2)nc(C)c1-c1ccc(F)c(COc2ccc3c(c2)C[C@H]2[C@H](C(=O)O)[C@@H]32)c1F [Example 45, (1S,1aS,6aR)-4-((3-(4,6-dimethyl-2-(4-phenylpiperidin-1-yl)pyrimidin-5-yl)-2,6-difluorobenzyl)oxy)-1,1a,6,6a-tetrahydrocyclopropa[a]indene-1-carboxylic acid] the EC50 (Human GPR40 [1]) was 853 nM and the EC50 (Human GPR40 [2]) was 29.4 nM.

Cc1nc(N2[C@@H]3CC[C@H]2CC(O)C3)ccc1-c1ccc(F)c(COc2ccc3c(c2)C[C@H]2[C@H](C(=O)O)[C@@H]32)c1 (stereo partly drawn) [Example 39, (1S,1aS,6aR)-4-((2-fluoro-5-(6-((1R,5S)-3-hydroxy-8-azabicyclo[3.2.1]octan-8-yl)-2-methylpyridin-3-yl)benzyl)oxy)-1,1a,6,6a-tetrahydrocyclopropa[a]indene-1-carboxylic acid] was tested, and the EC50 (Human GPR40 [1]) was 26 nM and the EC50 (Human GPR40 [2]) was 47.6 nM.

For Cc1cc(-c2ccc(F)c(COc3ccc4c(c3)C[C@H]3[C@H](C(=O)O)[C@@H]43)c2)c2c(cnn2C)n1 [Example 53, 7-(3-((((1S,1aS,6aR)-1-carboxy-1,1a,6,6a-tetrahydrocyclopropa[a]inden-4-yl)oxy)methyl)-4-fluorophenyl)-1,5-dimethyl-1H-pyrazolo[4,3-b]pyridin-4-ium formate], the EC50 (Human GPR40 [1]) was 39 nM and the EC50 (Human GPR40 [2]) was 51.8 nM.

With CS(=O)(=O)CCCOc1ncc(-c2ccc(F)c(COc3ccc4c(c3)C[C@H]3[C@H](C(=O)O)[C@@H]43)c2)cc1C(F)(F)F [Example 54, (1S,1aS,6aR)-4-((2-Fluoro-5-(6-(3-(methylsulfonyl)propoxy)-5-(trifluoromethyl)pyridin-3-yl)benzyl)oxy)-1,1a,6,6a-tetrahydrocyclopropa[a]indene-1-carboxylic acid] the EC50 (Human GPR40 [1]) was 236 nM and the EC50 (Human GPR40 [2]) was 50.7 nM.

Work on Cc1nc(N2CCC(C#N)(c3ccccc3)CC2)nc(C)c1-c1ccc(F)c(COc2ccc3c(c2)C[C@H]2[C@H](C(=O)O)[C@@H]32)c1 [Example 44, (1S,1aS,6aR)-4-((5-(2-(4-cyano-4-phenylpiperidin-1-yl)-4,6-dimethylpyrimidin-5-yl)-2-fluorobenzyl)oxy)-1,1a,6,6a-tetrahydrocyclopropa[a]indene-1-carboxylic acid] yielded an EC50 (Human GPR40 [1]) of 221 nM and an EC50 (Human GPR40 [2]) of 23.2 nM.

Molecule Cc1nc(OCCCN2CCCC2=O)ccc1-c1ccc(F)c(COc2ccc3c(c2)C[C@H]2[C@H](C(=O)O)[C@@H]32)c1 [Example 36, (1S,1aS,6aR)-4-((2-fluoro-5-(2-methyl-6-(3-(2-oxopyrrolidin-1-yl)propoxy)pyridin-3-yl)benzyl)oxy)-1,1a,6,6a-tetrahydrocyclo-propa[a]indene-1-carboxylic acid] has an EC50 (Human GPR40 [1]) of 20.5 nM and an EC50 (Human GPR40 [2]) of 19.9 nM.

Cc1nc(N2CCC(CS(C)(=O)=O)CC2)ccc1-c1ccc(F)c(COc2ccc3c(c2)C[C@H]2[C@H](C(=O)O)[C@@H]32)c1 [Example 50, (1S,1aS,6aR)-4-((2-fluoro-5-(2-methyl-6-(4-((methylsulfonyl)methyl)piperidin-1-yl)pyridine-3-yl)benzyl)oxy)-1,1a,6,6a-tetrahydrocyclopropa[a]indene-1-carboxylic acid] showed an EC50 (Human GPR40 [1]) of 27 nM and an EC50 (Human GPR40 [2]) of 58 nM.

For O=C(O)[C@H]1[C@@H]2Cc3cc(OCc4cc(-c5cnc6[nH]ccc6c5)ccc4F)ccc3[C@@H]21 [Example 24, (1S,1aS,6aR)-4-((2-fluoro-5-(1H-pyrrolo[2,3-b]pyridin-5-yl)benzyl)oxy)-1,1a,6,6a-tetrahydrocyclopropa[a]indene-1-carboxylic acid], the EC50 (Human GPR40 [1]) was 304 nM and the EC50 (Human GPR40 [2]) was 73.3 nM.

For Cc1nc(OCC2(O)CCCCC2O)ccc1-c1ccc(F)c(COc2ccc3c(c2)C[C@H]2[C@H](C(=O)O)[C@@H]32)c1 (stereo partly drawn) [Example 26, (1S,1aS,6aR)-4-((5-(6-((1,2-dihydroxycyclohexyl)methoxy)-2-methylpyridin-3-yl)-2-fluorobenzyl)oxy)-1,1a,6,6a-tetrahydrocyclopropa[a]indene-1-carboxylic acid], the EC50 (Human GPR40 [1]) was 25.5 nM and the EC50 (Human GPR40 [2]) was 83.8 nM.

Cc1cc(NCCCS(C)(=O)=O)ncc1-c1ccc(F)c(COc2ccc3c(c2)C[C@H]2[C@H](C(=O)O)[C@@H]32)c1 [Example 14, 4-{2-Fluoro-5-[6-(3-methanesulfonyl-propylamino)-4-methyl-pyridin-3-yl]-benzyloxy}-1,1a,6,6a-tetrahydro-cyclopropa[a]indene-1-carboxylic acid] gave an EC50 (Human GPR40 [1]) of 83.5 nM and an EC50 (Human GPR40 [2]) of 145 nM.

Work on Cc1nc(N2CCC(C(F)(F)F)CC2)ccc1-c1ccc(F)c(COc2ccc3c(c2)C[C@H]2[C@H](C(=O)O)[C@@H]32)c1 [Example 42, (1S,1aS,6aR)-4-((2-fluoro-5-(2-methyl-6-(4-(trifluoromethyl)piperidin-1-yl)pyridin-3-yl)benzyl)oxy)-1,1a,6,6a-tetrahydrocyclopropa[a]indene-1-carboxylic acid] yielded an EC50 (Human GPR40 [1]) of 51 nM and an EC50 (Human GPR40 [2]) of 12.8 nM.
